The values that follow are results of earlier work, collected in publication PMC9322122, “Development of (4-Phenylamino)quinazoline Alkylthiourea Derivatives as Novel NF-κB Inhibitors” (Pharmaceuticals, 2022).

One data set relates to IKKβ. Particulars: read-out: cell-free IC50 IKKβ; cited from earlier work.
Another data set deals with IKKα. Particulars: read-out: cell-free IC50 IKKα; cited from earlier work.
A further data set has as its system IL-1β production. Conditions: THP-1 macrophage model cell line; read-out: IC50 for suppression of IL-1β production; cited from earlier work.
The subject of the next data set is TNFα production. Particulars: THP-1 macrophage model cell line; read-out: IC50 for suppression of TNFα production; cited from earlier work.
Another data set deals with TNFα. Conditions: cited from earlier work.
A further data set relates to NF-κB p65 subunit. Further details: method as in PMID 28448872. Particulars: covalent modification of the p65 subunit; read-out: IC50, interfering with the binding of NF-κB to its DNA recognition site; cited from earlier work.
A further data set concerns 26S proteasome. Further details: method as in PMID 20420526. Particulars: read-out: IC50, inhibition of the activity of the 26S proteasome; cited from earlier work.
A further data set relates to IKKα/β. Further details: method as in PMID 10768472. Particulars: read-out: IC50, targeting IKKα/β; cited from earlier work.

Take `Cc1ccc2nc(NCCN)c3ncc(C)n3c2c1` [BMS-345541]: the IC50 is 0.3 µM in the data set on IKKβ, 4 µM in the data set on IKKα, around 5 µM in the data set with IL-1β production and around 5 µM with TNFα production. The “inhibition of TNFα in mice after administration of LPS” value in the data set on TNFα is reported as “effective in the inhibition of TNFα in mice”.
As for `C=C1C(=O)O[C@@H]2C[C@@H](C)[C@@H]3C=CC(=O)[C@@]3(C)[C@@H](O)[C@H]12` [helenalin], the IC50 in the data set with NF-κB p65 subunit was 5 µM.
Regarding `C[C@@]12OC(=O)[C@]1([C@@H](O)[C@@H]1C=CCCC1)NC(=O)[C@@H]2CCCl` [salinosporamide A], the IC50 in the data set with 26S proteasome is 0.0013 µM.
With cacospongiolide B, the IC50 with IKKα/β is 0.26 µM.
